Laboratory results taken from patent US20250339399A1, “SUPRAMOLECULAR SELF-ASSEMBLY SYSTEM” (Beijing Creatron Institute of Pharmaceutical Research Co., …, priority 2022, published 2025).
Where two headings read alike, the source gives them in different places. Values belong to the compound of their own block, whether it stands above or below them.

Key:
[1] = cited from earlier work; for Log P: prost derivatives, Table 31 (relevant information)
[2] = prost derivatives; 37° C.; cited from earlier work
[3] = Guest molecule concentration after incubation in initial medium without polymer (Comparative Example 1); assay type: physicochemical; conditions: 37° C.
Procedure, shortened: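 Dissolved guest content measured by HPLC of centrifuged supernatants (37° C., 13000 rpm, 5 min) sampled at 0.5 h, 3 h and 6 h. Incubation was polymer-free at 37° C.±0.5° C. in buffers of pH 2.0-7.4; nominal loading was set by maximum clinical dose.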

[4] = Binary supramolecular self-assembly systems of polymer and target: guest concentration over incubation time (Comparative Example 2); assay type: physicochemical
Experimental: Experiments were conducted according to the steps in Comparative Example 1, and quantitative analysis was carried out using the analytical method for each target to investigate the regulation ability […] stacking.

[5] = Binary (carrier), ternary and quaternary supramolecular self-assembly systems of polymer, carrier building block and target: guest concentration over incubation time (Examples 1-56); assay type: physicochemical
Procedure, shortened: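 Targets were incubated at 37 °C in pH 2.0–7.4 buffers with 0.5% polymer alone or with carrier building blocks, after 0.5 h sonication for ternary systems, and shaken at 200 rpm. Samples at 0.5–6 h were centrifuged and diluted ≥10-fold, and dissolved target was quantified by HPLC; surfactant was added if needed.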

[6] = cited from earlier work
[7] = Comparative Example 3: systems with 10% (W/V) natural building block; assay type: physicochemical; conditions: Comparative Example 3: 10% 319; 6 h
Experimental: An initial medium of each above target molecule was used to prepare a solution containing 10% Rubusoside A (313) or 10% (W/V) Mogroside V (319), the solution was sonicated at 37° C. to prepare a solution containing about 100 mg/mL building block 313 or 319 per 1 mL of the initial medium, the clear medium containing the natural building blocks was incubated in a 37° C. constant temperature air bath shaker for 1 hour, and subsequent operations and sample detection followed the steps of Comparative Examples 1 and 2. Considering that each natural building block had different UV absorption and was added at a high concentration, the more specific HPLC method was still used for quantitative determination on the solution concentration of each guest molecule, […].

[8] = binary system with 0.5% polymer 101, incubation 0.5 h
[9] = binary system with 0.5% polymer 101, incubation 3 h
[10] = binary system with 0.5% polymer 101, incubation 6 h
[11] = binary system with 0.5% polymer 102, incubation 0.5 h
[12] = binary system with 0.5% polymer 102, incubation 3 h
[13] = binary system with 0.5% polymer 102, incubation 6 h
[14] = binary system with 0.5% polymer 103, incubation 0.5 h
[15] = binary system with 0.5% polymer 103, incubation 3 h
[16] = binary system with 0.5% polymer 103, incubation 6 h
[17] = binary system with 0.5% polymer 106, incubation 0.5 h
[18] = binary system with 0.5% polymer 106, incubation 3 h
[19] = binary system with 0.5% polymer 106, incubation 6 h
[20] = binary system with 0.5% polymer 107, incubation 0.5 h
[21] = binary system with 0.5% polymer 107, incubation 3 h
[22] = binary system with 0.5% polymer 107, incubation 6 h
[23] = binary system with 0.5% polymer 110, incubation 0.5 h
[24] = binary system with 0.5% polymer 110, incubation 3 h
[25] = binary system with 0.5% polymer 110, incubation 6 h
[26] = quaternary: 0.05% 314 + 0.25% 201, 6 h
[27] = quaternary: 0.05% 314 + 0.25% 202, 6 h
[28] = quaternary: 0.05% 314 + 0.25% 203, 6 h
[29] = quaternary: 0.05% 314 + 0.25% 204, 6 h
[30] = quaternary: 0.05% 314 + 0.25% 205, 6 h
[31] = ternary: 0.25% 102H + 0.1% 319, 6 h
[32] = ternary: 0.25% 102H + 1.0% 319, 6 h
[33] = ternary: 0.25% 102M + 0.5% 302, 6 h

SMILES: CCNC(=O)CCC/C=C\C[C@@H]1[C@@H](/C=C/[C@@H](O)CCc2ccccc2)[C@H](O)C[C@@H]1O [Bimatoprost, bimatoprost]
Log P [1]: 2.65
Intrinsic solubility [2]: 50 µg/mL

SMILES: C=C(C)[C@@H]1CCC(C)=C[C@H]1c1c(O)cc(CCCCC)cc1O [Cannabidiol]
Concentration of guest molecule measured after different incubated time ([3]; 0.5 h, 0.05% SDS in pH 6.8 phosphate buffer): 11.4 µg/mL
Concentration of guest molecule measured after different incubated time ([3]; 3 h, 0.05% SDS in pH 6.8 phosphate buffer): 11.8 µg/mL
Concentration of guest molecule measured after different incubated time ([3]; 6 h, 0.05% SDS in pH 6.8 phosphate buffer): 8.5 µg/mL
Concentration of the target in the solution measured after different incubation time [4, 8]: 282.6 µg/mL
Concentration of the target in the solution measured after different incubation time [4, 9]: 293.7 µg/mL
Concentration of the target in the solution measured after different incubation time [4, 10]: 342.5 µg/mL
Concentration of the target in the solution measured after different incubation time [4, 11]: 307.3 µg/mL
Concentration of the target in the solution measured after different incubation time [4, 12]: 323.6 µg/mL
Concentration of the target in the solution measured after different incubation time [4, 13]: 333.1 µg/mL
Concentration of the target in the solution measured after different incubation time [4, 14]: 54.8 µg/mL
Concentration of the target in the solution measured after different incubation time [4, 15]: 55.1 µg/mL
Concentration of the target in the solution measured after different incubation time [4, 16]: 55.7 µg/mL
Concentration of the target in the solution measured after different incubation time [4, 17]: 148.1 µg/mL
Concentration of the target in the solution measured after different incubation time [4, 18]: 149.4 µg/mL
Concentration of the target in the solution measured after different incubation time [4, 19]: 155.7 µg/mL
Concentration of the target in the solution measured after different incubation time [4, 20]: 109.6 µg/mL
Concentration of the target in the solution measured after different incubation time [4, 21]: 97.2 µg/mL
Concentration of the target in the solution measured after different incubation time [4, 22]: 95.7 µg/mL
Concentration of the target in the solution measured after different incubation time [4, 23]: 168.9 µg/mL
Concentration of the target in the solution measured after different incubation time [4, 24]: 8.6 µg/mL
Concentration of the target in the solution measured after different incubation time [4, 25]: 7.3 µg/mL
Concentration of guest molecule in solution ([4]; binary: 0.25% 101, 6 h): 342.5 µg/mL
Times that of the initial medium ([4]; binary: 0.25% 101, 6 h): 40 times
Concentration of guest molecule in solution ([4]; binary: 0.25% 103E3, 6 h): 55.7 µg/mL
Concentration of guest molecule in solution ([4]; binary: 0.25% 106 (K30), 6 h): 155.7 µg/mL
Times that of the initial medium ([4]; binary: 0.25% 106 (K30), 6 h): 18 times
Concentration of guest molecule in solution [5, 26]: 732.2 µg/mL
Times that of the initial medium [5, 26]: 86 times
Concentration of guest molecule in solution [5, 27]: 399.4 µg/mL
Times that of the initial medium [5, 27]: 47 times
Concentration of guest molecule in solution [5, 28]: 648.3 µg/mL
Times that of the initial medium [5, 28]: 76 times
Concentration of guest molecule in solution [5, 29]: 725.0 µg/mL
Times that of the initial medium [5, 29]: 85 times
Concentration of guest molecule in solution [5, 30]: 581.7 µg/mL
Times that of the initial medium [5, 30]: 68 times
Concentration of guest molecule in solution ([5]; ternary: 102M + 0.1% 310, 6 h): 580.1 µg/mL
Concentration of guest molecule in solution ([5]; ternary: 102M + 0.25% 310, 6 h): 481.2 µg/mL
Concentration in the system ([6]; 200 mM methyl-beta-cyclodextrin, literature): 25500 µg/mL
Best result reported by the literature (concentration) ([6]; International Journal of Pharmaceutics 589 (2020) 119812): 150 µg/mL
Concentration in the system ([6]; about 5-10 mM methyl-beta-cyclodextrin, literature curve): lower than 1 mg/mL
LogD7.4 or Log P [1]: 6.32

Concentration of guest molecule measured after different incubated time ([3]; 0.5 h, pH 6.8 phosphate buffer): 1.7 µg/mL
Concentration of guest molecule measured after different incubated time ([3]; 3 h, pH 6.8 phosphate buffer): 9.4 µg/mL
Concentration of guest molecule measured after different incubated time ([3]; 6 h, pH 6.8 phosphate buffer): 8.6 µg/mL
Concentration of the target in the solution measured after different incubation time [4, 8]: 219.7 µg/mL
Concentration of the target in the solution measured after different incubation time [4, 9]: 120.1 µg/mL
Concentration of the target in the solution measured after different incubation time [4, 10]: 50.3 µg/mL
Concentration of the target in the solution measured after different incubation time [4, 11]: 747.8 µg/mL
Concentration of the target in the solution measured after different incubation time [4, 12]: 643.4 µg/mL
Concentration of the target in the solution measured after different incubation time [4, 13]: 576.7 µg/mL
Concentration of the target in the solution measured after different incubation time [4, 14]: 76.1 µg/mL
Concentration of the target in the solution measured after different incubation time [4, 15]: 52.9 µg/mL
Concentration of the target in the solution measured after different incubation time [4, 16]: 32.7 µg/mL
Concentration of the target in the solution measured after different incubation time [4, 17]: 102.6 µg/mL
Concentration of the target in the solution measured after different incubation time [4, 18]: 118.1 µg/mL
Concentration of the target in the solution measured after different incubation time [4, 19]: 90.3 µg/mL
Concentration of the target in the solution measured after different incubation time [4, 20]: 107.4 µg/mL
Concentration of the target in the solution measured after different incubation time [4, 21]: 8.3 µg/mL
Concentration of the target in the solution measured after different incubation time [4, 22]: 7.7 µg/mL
Concentration of the target in the solution measured after different incubation time [4, 23]: 6.0 µg/mL
Concentration of the target in the solution measured after different incubation time [4, 24]: 8.3 µg/mL
Concentration of the target in the solution measured after different incubation time [4, 25]: 10.0 µg/mL
Concentration of guest molecule in solution ([4]; binary: 0.25% 102M, 2 h): 962.6 µg/mL
Concentration of guest molecule in solution ([4]; binary: 0.25% 102M, 6 h): 6.4 µg/mL
Concentration of guest molecule in solution ([4]; binary: 0.5% 102M, 6 h): 576.6 µg/mL
Times that of the initial medium ([4]; binary: 0.5% 102M, 6 h): 67 times
Concentration of guest molecule in solution ([5]; quaternary: 0.25% 204 (102M+103E5) + 302, 6 h): 34.2 µg/mL
Concentration of guest molecule in solution [5, 31]: 676.6 µg/mL
Times that in Comparative Example 3 [5, 31]: 81.5 times
Concentration of guest molecule in solution [5, 32]: 516.3 µg/mL
Times that in Comparative Example 3 [5, 32]: 62.2 times
Concentration of guest molecule in solution ([5]; ternary: 0.25% 102M + 0.05% 314, 0.5 h): 140.0 µg/mL
Concentration of guest molecule in solution ([5]; ternary: 0.25% 102M + 0.05% 314, 6 h): 5.2 µg/mL
Concentration of guest molecule in solution ([5]; ternary: 0.25% 102M + 0.1% 314, 4 h): 1036.7 µg/mL
Concentration of guest molecule in solution [5, 33]: 862.1 µg/mL
Times that of the initial medium [5, 33]: 100.6 times
Concentration of guest molecule in solution ([5]; ternary: 0.25% 102M + 1.0% or 1.5% 314, 0.5 h-4.0 h): ~1000 µg/mL
Concentration of guest molecule in solution ([5]; ternary: 0.25% 102M + 1.0% or 1.5% 314, 6 h): 900 µg/mL
Concentration of guest molecule in solution ([5]; ternary: 102H + 313, 4 h): about 609.8 μg/mL
Concentration of guest molecule in solution ([5]; ternary: 102H + 317, 4 h): ~638.6 µg/mL
Concentration of guest molecule in solution [7]: 8.3 µg/mL
SMILES: COc1cc(/C=C/C(=O)CC(=O)/C=C/c2ccc(O)c(OC)c2)ccc1O [Curcumin]
LogP [1]: 4.12

SMILES: CC(C)OC(=O)CCC/C=C\C[C@@H]1[C@@H](CC[C@@H](O)CCc2ccccc2)[C@H](O)C[C@@H]1O [Latanoprost, latanoprost]
Log P [1]: 3.98
Intrinsic solubility [2]: 30 µg/mL
